In patent US12607620B2, “Devices and systems for mimicking heart function” (UNIVERSITY OF CENTRAL FLORIDA RESEARCH FOUNDATION, INC., priority 2013, dated 2026):

Assays:
human cardiomyocytes [1] = assay: Microelectrode array (MEA) recording of electrical activity of patterned human cardiomyocytes; assay type: cell-based
Procedure: The cardiac myocytes were cultured on patterned metal MEAs (planar 10 μm electrodes, 200 μm separation, Multichannel-systems). A 60 channel amplifier (MEA1040, Multichannel-systems) was used to record electrical activity from the spontaneously beating cardiac cells. The same electrodes were also used for stimulation utilizing a stimulus generator (STG 1002, Multichannel systems). The cells were stimulated utilizing 500 mV, 1 ms wide bipolar pulses at 2 Hz. The recording medium was the same as the plating medium with the pH adjusted to 7.3 using HEPES buffer. After a 30 minute incubation period, APs were detected and recorded using built in functions of the Multichannel System software. […] The data was further analyzed using software written using Matlab and Clampfit (Axon instruments). […] The cardiomyocytes used in these experiments were derived from differentiated adult induced pluripotent stem cells purchased from Cellular Dynamics. In FIG. 27 and FIG. 28, the electrical activity of the human cardiomyocytes plated on patterned MEAs was recorded following 12 days in vitro using a Multichannel Systems 60 channel amplifier (MEA 1040, Multichannel Systems). Prior to recording, the cells were allowed to equilibrate for 15 min in the lab atmosphere at 37° C. Temperature was maintained with a TC02 temperature controller (Multichannel Systems). The cells were stimulated using a STG 1002 stimulator (Multichannel Systems) by applying 1 ms wide bipolar square pulses of 500 mV every 500 ms. The recording medium was the same as the plating medium. […] Data are represented as percentage changes compared to the control and expressed as mean +/−SEM. In FIG. 29, electrical activity of the human cardiomyocytes plated on patterned MEAs was recorded following 12 days in vitro (DIV) using a Multichannel Systems 60 channel amplifier (MEA 1040, Multichannel Systems). Prior to recording, the cells were allowed to equilibrate for 15 min in the lab atmosphere at 37° C. Temperature was maintained with a TC02 temperature controller (Multichannel Systems). The cells were stimulated using a STG 1002 stimulator (Multichannel Systems) by applying 1 ms wide bipolar square pulses of 500 mV every 500 ms. The recording medium was the same as the plating medium. Sotalol (Sigma, cat#S0278) was added to the bathing medium in increasing concentrations of 0 μM, 10 μM, 30 μM, 100 μM, and 300 μM.

human cardiomyocytes [2] = assay: Cantilever contractile force measurement of human cardiomyocytes (AFM-like laser deflection detection); assay type: cell-based
Procedure: Spontaneous or electrical stimulation-evoked force generation of cardiac myocytes was measured based on optical detection or electrical detection of cantilever-bending. Optical detection of displacement of the end of the cantilever was based on the principle routinely used in atomic force microscopes (AFM) in which a laser beam was reflected from the cantilever to a sensor. The sensor detected the displacement of the laser beam caused by changes in the position of the cantilever. In this optical detection method, an automated electrical shutter was placed in the beam path. This placement minimized the exposure of the cells to the reflected laser light. Electrical detection of the displacement was based on piezoelectric principle that requires special design and materials for the fabrication of the cantilevers. Both detection methods enabled automation and high-throughput screening on myocyte contraction force. Peak contraction force and force-contraction velocity relationships were calculated based on the geometry of the cantilevers and the thickness of cultured cardiac myocytes (determined from immunostaining data). Compounds (such as norepinephrine, epinephrine, ouabain, verapamil, and sotalol) were applied using traditional methods to the medium and possible changes in force or force-velocity relationship were detected and analyzed using standard statistical methods.
A detection system similar to those used in atomic force microscope (AFM) system was designed for measuring deflection of the cantilevers during contraction. The entire system was assembled around an upright Olympus BX51WI electrophysiology microscope (Olympus Inc., Center Valley, PA). The detection system consisted of a class 2 red photodiode laser (Newport, Irvine, CA), a stimulation chamber, a 4-quadrant photodetector (Noah Industries, Melbourne, FL), and a computer with pClamp 10.0 data acquisition software (Molecular Devices, Union City, CA). The laser and photodetector (PD) were mounted on x-y-z-h translators (Newport, Irvine, CA), which were mounted on the underside of the microscope stage. The stimulation chamber was fabricated from 5 mm thick polycarbonate sheet. An approximately 15 mm×15 mm square chamber was milled out of the sheet and fitted with silver wires (0.015 inch diameter) for field stimulation. The silver wires were mounted parallel to each other with a separation of 15 mm. The bottom of the chamber was sealed using a 22 mm×22 mm glass coverslip. This created a transparent base through which the laser beam could easily pass. The silver wires were connected to an external pulse generator (A-M systems, Sequim, WA) capable of producing field stimulation pulses of varying intensity, frequency, and waveform. Both the pulse generator and PD were connected to an Axon Instruments series 1440 digitizer (Molecular Devices, Union City, CA) which was interfaced with the computer.
A detection system similar to that used in atomic force microscopy (AFM) was used in these experiments. Prior to recording, the cells were allowed to equilibrate for 15 min in the lab atmosphere at 37° C. Drugs were added cumulatively as follow: 0.1 μM, 0.3 μM, 1.0 μM, and 3.0 μM (norepinephrine); 0.1 μM, 1.0 μM, and 3.0 μM (epinephrine); 0.1 μM, 0.3 μM, 1.0 μM, and 3.0 μM (ouabain); and 0.3 μM, 1.0 μM, and 3.0 μM (verapamil). Washout was performed by rinsing the cells five (5) times with 1 mL of cell culture medium.

[3] = norepinephrine concentration range 0.1-3 μM, human cardiac myocytes
[4] = cardiomyocytes derived from human iPSCs cultured on cantilevers (FIG. 31D)
[5] = sotalol 0-300 μM in bathing medium, human cardiomyocytes on patterned MEAs, 12 DIV, change vs control (FIG. 29)

For `NC[C@H](O)c1ccc(O)c(O)c1` [norepinephrine], the QT interval (human cardiomyocytes [1]; [3]) was “decreased”, the “minimal ISI (analogue of QT interval)” value (human cardiomyocytes [1]; [3]) was “decreased” and the spontaneous beating rate (human cardiomyocytes [1]; [3]) was “significantly increased”. The contractile force (human cardiomyocytes [2]; [4]) was “increasing”, the contractile frequency (human cardiomyocytes [2]; [4]) was “increasing” and the peak contraction force (human cardiomyocytes [2]; norepinephrine concentration range 0.1-3 μM, human cardiac myocytes on cantilevers, 14 days in vitro (FIG. 30A)) was “increased”.

For `CC(C)NCC(O)c1ccc(NS(C)(=O)=O)cc1` (centres unmarked) [sotalol], the QT intervals (human cardiomyocytes [1]; [5]) was “significantly increased”, the “mISI (minimum interspike interval)” value (human cardiomyocytes [1]; [5]) was “significantly increased” and the conduction velocity (human cardiomyocytes [1]; sotalol concentrations above 100 μM, human cardiomyocytes on patterned MEAs, 12 DIV) was “decreased”.

In the case of `COc1ccc(CCN(C)CCC[C@@](C#N)(c2ccc(OC)c(OC)c2)C(C)C)cc1OC` [verapamil], the “peak force versus concentration (μM)” value (human cardiomyocytes [2]; human cardiomyocytes following administration of verapamil (FIG. 12C)) is reported as “decrease” and the contraction peak force (human cardiomyocytes [2]; verapamil 0.3, 1.0, 3.0 μM cumulative, human cardiomyocytes on cantilevers, 14 days in vitro (FIG. 30D)) is reported as “concentration dependently decreased”.
